Experimental data as given in patent US4681872A (priority 1985, dated 1987).
In brackets after ≈: the same amount, converted by molar mass. Read-outs that look alike come from different tables or passages of the source.

Experiments:
[1] = system: Klebsiella pneumoniae 8045; assay: antimicrobial spectrum, agar dilution MIC; details: BHI agar, 35°-37° C., 20-24 hours
Enterococcus GYR 1166 = assay: microbe, parasite or virus in culture; type: cell-based
Bact. SP SFM2975-2 = assay: antimicrobial spectrum, agar dilution MIC
Staph. aureus A-5278 = assay: antimicrobial spectrum, agar dilution MIC
E. coli DC-2 = assay: antimicrobial spectrum, agar dilution MIC
Strep. pyogenes EES61 = assay: antimicrobial spectrum, agar dilution MIC; type: cell-based; details: BHI agar, 35°-37° C., 20-24 hours
Staph. aureus 642A = assay: antimicrobial spectrum, agar dilution MIC; type: cell-based; details: BHI agar, 35°-37° C., 20-24 hours
Strep. pneumoniae = assay: acute mouse protection test; type: in vivo, Swiss albino mice; details: mice, dosed 1 and 5 hours post-infection, observed 7 days; for ED50: Streptococcus pneumoniae, 168 h
Staph. aureus CMX 686B = assay: antimicrobial spectrum, agar dilution MIC
[2] = system: Staph. epidermidis CMX 729h; assay: antimicrobial spectrum, agar dilution MIC
Enterococcus GYR 1167 = assay: antimicrobial spectrum, agar dilution MIC
Staph. aureus ATCC 6538P = assay: antimicrobial spectrum, agar dilution MIC
Staph. aureus CMX 730A = assay: antimicrobial spectrum, agar dilution MIC; type: cell-based; details: BHI agar, 35°-37° C., 20-24 hours
[3] = system: Bact. melaninogenicus ATCC 15930; assay: antimicrobial spectrum, agar dilution MIC; type: cell-based; details: 35°-37° C., 20-24 hours
[4] = system: Providencia stuartii CMX 640; assay: antimicrobial spectrum, agar dilution MIC; type: cell-based; details: BHI agar, 35°-37° C., 20-24 hours
Staph. aureus A5177 = assay: antimicrobial spectrum, agar dilution MIC
Strep. pyogenes = assay: acute mouse protection test; type: in vivo, Swiss albino mice; details: mice, dosed 1 and 5 hours post-infection, observed 7 days; for ED50: Streptococcus pyogenes, 168 h
[5] = system: Staph. epidermidis GYR 1151; assay: antimicrobial spectrum, agar dilution MIC; type: cell-based; details: 35°-37° C., 20-24 hours
[6] = system: Bact. thetaiotamicron 106; assay: antimicrobial spectrum, agar dilution MIC
Bact. fragilis SFM2906A = assay: antimicrobial spectrum, agar dilution MIC
[7] = system: Pseudomonas aeruginosa 5007; assay: antimicrobial spectrum, agar dilution MIC; details: BHI agar, 35°-37° C., 20-24 hours
Strep. pyogenes 930 = assay: antimicrobial spectrum, agar dilution MIC; details: BHI agar, 35°-37° C., 20-24 hours
[8] = system: Staph. saprophyticus ATCC 15305; assay: antimicrobial spectrum, agar dilution MIC; type: cell-based; details: 35°-37° C., 20-24 hours
[9] = system: Strep. pyogenes M79061-140; assay: antimicrobial spectrum, agar dilution MIC; type: cell-based; details: 35°-37° C., 20-24 hours
Bact. fragilis UC-2 = details: BHI agar, 35°-37° C., 20-24 hours
E. coli SS = assay: antimicrobial spectrum, agar dilution MIC; details: BHI agar, 35°-37° C., 20-24 hours
Strep. bovis A5169 = assay: antimicrobial spectrum, agar dilution MIC; type: cell-based; details: BHI agar, 35°-37° C., 20-24 hours
[10] = system: Staph. epidermidis CMX 728; assay: antimicrobial spectrum, agar dilution MIC; type: cell-based; details: 35°-37° C., 20-24 hours
Strep. faecalis CMX 663F = assay: antimicrobial spectrum, agar dilution MIC
[11] = system: Peptostrep. micros ATCC 33270; assay: antimicrobial spectrum, agar dilution MIC
Cl. perfringens 104 = assay: microbe, parasite or virus in culture; type: cell-based
Bact. fragilis SFM2929-1 = assay: antimicrobial spectrum, agar dilution MIC
[12] = system: Strep. pneumoniae 78-008107; assay: antimicrobial spectrum, agar dilution MIC
[13] = system: Propionibacterium acnes 132; assay: antimicrobial spectrum, agar dilution MIC
Bact. fragilis SFM2975-7 = assay: antimicrobial spectrum, agar dilution MIC; type: cell-based; details: 35°-37° C., 20-24 hours
Cl. difficile ATCC 9689 = assay: antimicrobial spectrum, agar dilution MIC

## CCC1OC(=O)C(C)C(OC2CC(C)(OC)CC(C)O2)C(C)C(OC2OC(C)CC(N(C)C)C2O)C(C)(O)CC(C)C(=O)C(C)C2OC(=O)OC12C (stereo not shown) [4"-deoxyerythromycin A 11,12-carbonate]
[1]
  MIC: 25 µg/mL (≈ 33.6 µM)
Enterococcus GYR 1166; Enterococcus GYR 1166, BHI agar, 35°-37° C., 20-24 hours
  MIC: .12 µg/mL (≈ 0.161 µM)
Bact. SP SFM2975-2; Bact. SP SFM2975-2, BHI agar, 35°-37° C., 20-24 hours
  MIC: .8 µg/mL (≈ 1.08 µM)
Staph. aureus A-5278; Staph. aureus A-5278, BHI agar, 35°-37° C., 20-24 hours
  MIC: 128 µg/mL (≈ 172 µM)
E. coli DC-2; E. coli DC-2, BHI agar, 35°-37° C., 20-24 hours
  MIC: 25 µg/mL (≈ 33.6 µM)
Strep. pyogenes EES61
  MIC: .01 µg/mL (≈ 0.0134 µM)
Staph. aureus 642A
  MIC: .06 µg/mL (≈ 0.0807 µM)
Strep. pneumoniae; oral
  ED-50: 200.0 mg/kg
Strep. pneumoniae; subcutaneous
  ED-50: 44.1 mg/kg
Staph. aureus CMX 686B; Staph. aureus CMX 686B, BHI agar, 35°-37° C., 20-24 hours
  MIC: .1 µg/mL (≈ 0.134 µM)
[2]; Staph. epidermidis CMX 729h, BHI agar, 35°-37° C., 20-24 hours
  MIC: 128 µg/mL (≈ 172 µM)
Enterococcus GYR 1167; Enterococcus GYR 1167, BHI agar, 35°-37° C., 20-24 hours
  MIC: .5 µg/mL (≈ 0.672 µM)
Staph. aureus ATCC 6538P; Staph. aureus ATCC 6538P, BHI agar, 35°-37° C., 20-24 hours
  MIC: .1 µg/mL (≈ 0.134 µM)
Staph. aureus CMX 730A
  MIC: .03 µg/mL (≈ 0.0403 µM)
[3]; BHI agar
  MIC: .1 µg/mL (≈ 0.134 µM)
[4]
  MIC: 100 µg/mL (≈ 134 µM)
Staph. aureus A5177; Staph. aureus A5177, BHI agar, 35°-37° C., 20-24 hours
  MIC: .39 µg/mL (≈ 0.524 µM)
Strep. pyogenes; oral
  ED-50: 8.9 mg/kg
Strep. pyogenes; subcutaneous
  ED-50: 4.0 mg/kg
[5]; BHI agar
  MIC: .06 µg/mL (≈ 0.0807 µM)
[6]; Bact. thetaiotamicron 106, BHI agar, 35°-37° C., 20-24 hours
  MIC: 3.1 µg/mL (≈ 4.17 µM)
Bact. fragilis SFM2906A; Bact. fragilis SFM2906A, BHI agar, 35°-37° C., 20-24 hours
  MIC: .8 µg/mL (≈ 1.08 µM)
[7]
  MIC: 100 µg/mL (≈ 134 µM)
Strep. pyogenes 930
  MIC: 100 µg/mL (≈ 134 µM)
[8]; BHI agar
  MIC: .03 µg/mL (≈ 0.0403 µM)
[9]; BHI agar
  MIC: .001 µg/mL (≈ 0.00134 µM)
Bact. fragilis UC-2
  MIC: 1.6 µg/mL (≈ 2.15 µM)
E. coli SS
  MIC: .2 µg/mL (≈ 0.269 µM)
Strep. bovis A5169
  MIC: .005 µg/mL (≈ 0.00672 µM)
[10]; BHI agar
  MIC: .03 µg/mL (≈ 0.0403 µM)
Strep. faecalis CMX 663F; Strep. faecalis CMX 663F, BHI agar, 35°-37° C., 20-24 hours
  MIC: 2 µg/mL (≈ 2.69 µM)
[11]; Peptostrep. micros ATCC 33270, BHI agar, 35°-37° C., 20-24 hours
  MIC: .05 µg/mL (≈ 0.0672 µM)
Cl. perfringens 104; Cl. perfringens 104, BHI agar, 35°-37° C., 20-24 hours
  MIC: .4 µg/mL (≈ 0.538 µM)
Bact. fragilis SFM2929-1; Bact. fragilis SFM2929-1, BHI agar, 35°-37° C., 20-24 hours
  MIC: 1.6 µg/mL (≈ 2.15 µM)
[12]; Strep. pneumoniae 78-008107, BHI agar, 35°-37° C., 20-24 hours
  MIC: 32 µg/mL (≈ 43 µM)
[13]; Propionibacterium acnes 132, BHI agar, 35°-37° C., 20-24 hours
  MIC: .05 µg/mL (≈ 0.0672 µM)
Bact. fragilis SFM2975-7; BHI agar
  MIC: .8 µg/mL (≈ 1.08 µM)
Cl. difficile ATCC 9689; Cl. difficile ATCC 9689, BHI agar, 35°-37° C., 20-24 hours
  MIC: .4 µg/mL (≈ 0.538 µM)

## CC[C@H]1OC(=O)[C@H](C)[C@@H](O[C@H]2C[C@@](C)(OC)[C@@H](O)[C@H](C)O2)[C@H](C)[C@@H](O[C@@H]2O[C@H](C)C[C@H](N(C)C)[C@H]2O)[C@](C)(O)C[C@@H](C)C(=O)[C@H](C)[C@@H](O)[C@]1(C)O [Erythromycin A, reference compound]
Enterococcus GYR 1166; Enterococcus, GYR1166
  MIC: 1 µg/mL (≈ 1.36 µM)
Bact. SP SFM2975-2
  MIC: 1.6 µg/mL (≈ 2.18 µM)
Staph. aureus A-5278; Staphylococcus aureus, A5278
  MIC: 128 µg/mL (≈ 174 µM)
E. coli DC-2; Escherichia coli, DC2
  MIC: 50 µg/mL (≈ 68.1 µM)
Strep. pyogenes EES61; Streptococcus pyogenes, read-out: MIC
  MIC: 0.01 µg/mL (≈ 0.0136 µM)
Staph. aureus 642A; Staphylococcus aureus, read-out: MIC
  MIC: 0.12 µg/mL (≈ 0.164 µM)
Strep. pneumoniae; oral
  ED50: 113 mg/kg
Strep. pneumoniae; sc, subcutaneous
  ED50: 50 mg/kg
Staph. aureus CMX 686B; Staphylococcus aureus, CMX686B
  MIC: 0.39 µg/mL (≈ 0.531 µM)
[2]; Staphylococcus epidermidis, CMX729H
  MIC: 128 µg/mL (≈ 174 µM)
Enterococcus GYR 1167; Enterococcus, GYR1167
  MIC: 2 µg/mL (≈ 2.73 µM)
Staph. aureus ATCC 6538P; Staphylococcus aureus, ATCC6538P
  MIC: 0.39 µg/mL (≈ 0.531 µM)
Staph. aureus CMX 730A; Staphylococcus aureus, CMX730A, read-out: MIC
  MIC: 0.06 µg/mL (≈ 0.0818 µM)
[3]; Prevotella intermedia, ATCC15930, BHI agar, read-out: MIC
  MIC: 0.4 µg/mL (≈ 0.545 µM)
Staph. aureus A5177; Staphylococcus aureus, A5177
  MIC: 1.56 µg/mL (≈ 2.13 µM)
Strep. pyogenes; oral
  ED50: 50 mg/kg
Strep. pyogenes; sc, subcutaneous
  ED50: 3.5 mg/kg
[5]; Staphylococcus epidermidis, GYR1151, BHI agar, read-out: MIC
  MIC: 0.06 µg/mL (≈ 0.0818 µM)
[6]
  MIC: 3.1 µg/mL (≈ 4.22 µM)
Bact. fragilis SFM2906A; Bacteroides fragilis, SFM2906A
  MIC: 3.1 µg/mL (≈ 4.22 µM)
[8]; Staphylococcus saprophyticus, ATCC15305, BHI agar, read-out: MIC
  MIC: 0.06 µg/mL (≈ 0.0818 µM)
[9]; Streptococcus pyogenes, M79061140, BHI agar, read-out: MIC
  MIC: 0.002 µg/mL (≈ 0.00273 µM)
Strep. bovis A5169; Streptococcus equinus, read-out: MIC
  MIC: 0.01 µg/mL (≈ 0.0136 µM)
[10]; Staphylococcus epidermidis, CMX728, BHI agar, read-out: MIC
  MIC: 0.06 µg/mL (≈ 0.0818 µM)
Strep. faecalis CMX 663F; Enterococcus faecalis, CMX663F
  MIC: 16 µg/mL (≈ 21.8 µM)
[11]
  MIC: 0.1 µg/mL (≈ 0.136 µM)
Cl. perfringens 104; Clostridium perfringens, 104
  MIC: 1.6 µg/mL (≈ 2.18 µM)
Bact. fragilis SFM2929-1; Bacteroides fragilis, SFM29291
  MIC: 3.1 µg/mL (≈ 4.22 µM)
[12]; Streptococcus pneumoniae, 78008107
  MIC: 128 µg/mL (≈ 174 µM)
[13]; Cutibacterium acnes, 132
  MIC: 0.05 µg/mL (≈ 0.0681 µM)
Bact. fragilis SFM2975-7; Bacteroides fragilis, SFM29757, BHI agar, read-out: MIC
  MIC: 6.3 µg/mL (≈ 8.58 µM)
Cl. difficile ATCC 9689; Clostridioides difficile, ATCC9689
  MIC: 0.4 µg/mL (≈ 0.545 µM)
